Measurements published in patent US11821001B2, “Cell culture medium for eukaryotic cells” (Regeneron Pharmaceuticals, Inc., priority 2019, dated 2023).

Tested on: titer of VEGFR binding protein 1
Assay: Correlation and regression of component concentration against protein titer of VEGFR binding protein 1
Format: cell-based
Conditions: regression line; for protein titer versus concentration of the component in the cell culture medium: N=70, extrapolated estimation from soy hydrolysate data, FIG. 3 / FIG. 5; for protein titer versus concentration of the component in the soy hydrolysate added to the cell culture medium: N=70, enriched medium (soy hydrolysate), FIG. 2 / FIG. 4
Protocol: The impact of 5-methythioadenosine on production of a recombinant protein (VEGFR binding protein 1) was studied by investigating the protein titer (g/L) at different concentrations of 5-methythioadenosine present in the cell culture medium.
An enriched medium (soy hydrolysate) comprising 5-methythioadenosine was added to the cell culture medium.
Based on the correlation data obtained from studying the effect of 5-methythioadenosine concentrations in the enriched medium (soy hydrolysate) supplemented to the cell culture medium (Example 2, FIG. 2), an estimation as to the optimum concentration of 5-MTA in a cell culture was made.
The impact of nicotinamide on a recombinant protein (VEGFR binding protein 1) titer was also studied by investigating the protein titer (g/L) at different concentrations of nicotinamide present in the cell culture medium.
An enriched medium (soy hydrolysate) comprising nicotinamide was added to the cell culture medium at varying concentrations.
Based on the correlation data obtained from studying the effect of nicotinamide concentration in enriched medium (soy hydrolysate) supplemented to the cell culture medium (Example 4, FIG. 4), an estimation as to the optimum concentration of nicotinamide in a cell culture was made.

| SMILES | protein titer versus concentration of the component in the cell culture medium | protein titer versus concentration of the component in the soy hydrolysate added to the cell culture medium |
| --- | --- | --- |
| CSC[C@H]1O[C@@H](n2cnc3c(N)ncnc32)[C@H](O)[C@@H]1O [5-methylthioadenosine (MTA), 5-Deoxy-5′-methylthioadenosine] | titer can vary linearly | titer varied linearly |
| NC(=O)c1cccnc1 [Nicotinamide, 3-Pyridinecarboxamide] | titer can vary linearly | titer varied linearly |
